Laboratory results from PMC4160546, “Biotechnical paving of recombinant enterocin A as the candidate of anti-Listeria agent” (BMC Microbiology, 2014).
≈ marks a conversion by molar mass, not a printed value.

Legend:
[1] = cited from earlier work
Method: The native EntA was stable at 100°C and acidic pH conditions. […] These properties were potentially due to the higher cysteine content of the antimicrobial peptides, similar to the EntA containing four cysteine residues. In addition, the antimicrobial activity of some bacteriocins (nisin, sakacin P and curvacin A) was si ...

L. ivanovii ATCC19119 [2] = assay: MIC and MBC, microtiter broth dilution method; format: cell-based; settings: Listeria ivanovii, triplicate
Method: Minimal inhibitory concentrations (MICs) and Minimum bactericidal concentrations (MBCs) assays were determined using the microtiter broth dilution method. Ampicillin was also tested with the same concentration gradient as a positive control. All tests were performed in triplicate.

L. ivanovii ATCC19119 [3] = assay: In-vitro killing curve (time-kill) assay; format: cell-based, Listeria ivanovii; settings: 2 × MIC, 10 h time-kill
Method: To evaluate the antibacterial activity of rEntA against L. ivanovii ATCC19119, a time-kill assay was performed as described by the methods of Mao [32]. In addition, tubes with only bacterial inoculum were used as growth controls. All experiments were performed in triplicate.

[4] = test system: digestive proteases trypsin and pepsin; settings: cited from earlier work
Source text: Similarly, the purified rEntA, with 12.76% basic amino acids and 10.63% aromatic amino acids, was inactivated with trypsin and pepsin (Figure 4C). This high sensitivity to digestive proteases of rEntA contributes to its safety in foods and drugs, during and after oral administration.

**Q.** With “nisin: class I bacteriocin, widely used in commerce (ITSISLCTPGCKTGALMGCNMKTATCHCSIHVSK; not fully specified; Lantibiotic nisin-A; UniProt P13068 24-57, looked up)” as the compound, how does the “effect of NaCl on antimicrobial activity” value ([1]; addition of NaCl from 0 to 1.17 M) read?
**A.** significantly enhanced

**Q.** What does the source list for `CC1(C)S[C@@H]2[C@H](NC(=O)[C@H](N)c3ccccc3)C(=O)N2[C@H]1C(=O)O` [ampicillin]?
**A.** MBC (L. ivanovii ATCC19119 [2]): 1.56 µg/mL (≈ 4.46 µM); MIC (L. ivanovii ATCC19119 [2]): 0.39 µg/mL (≈ 1.12 µM); growth of survivors after MVL (L. ivanovii ATCC19119 [3]): resumed growth

**Q.** Which “sensitivity to trypsin and pepsin” value [4] does the source give for “pediocin PA-1: class IIa bacteriocin (KYYGNGVTCGKHSCSVDWGKATTCIINNGAMAWATGGHQGNHKC; UniProt P29430 19-62, looked up)” here?
**A.** very sensitive

**Q.** What about the “bactericidal activity and overall structure at higher temperatures” value [1] of the same compound?
**A.** well maintained
